Data as given in article PMC7248809, “Differential Proliferation Effect of the Newly Synthesized Valine, Tyrosine and Tryptophan–Naphthoquinones in Immortal and Tumorigenic Cervical Cell Lines” (Molecules, 2020).

Experiments:
[1] = tested on: CaLo cells (HPV-18 positive cervical tumor line); assay: Cell proliferation (crystal violet), dose-response, CaLo; conditions: 72 h
Experimental: (§1) Immortal and HPV negative cell line HaCaT cells was selected as control for both immortality status and HPV content. […] In order to evaluate the effect of the naphthoquine amino acid derivatives in immortal and tumorigenic cells with HPV positive and negative status we performed a dose-response analysis.
(§2) (A) HaCaT HPV negative cell line cells were treated with 6.25, 12.5, 25, 50, 100 and 200 μM of naphthoquinone amino acid derivatives to assay proliferation rate at 72 h post-treatment. (B) SiHa HPV 16 positive cancer cells were treated with 6.25, 12.5, 25, 50, 100 and 200 μM of naphthoquinone amino acid derivatives to assay proliferation rate at 72 h post-treatment. (C) CaLo HPV 18 positive cancer cells were treated with 6.25, 12.5, 25, 50, 100 and 200 μM of naphthoquinone amino acid derivatives to assay proliferation rate at 72 h post-treatment. […] Cells treated with 0.1% of DMSO were used as Control. * represents statistically significant p < 0.05 value.
(§3) Cell proliferation was quantified by violet crystal dye in 1X phosphate-buffered saline (PBS) (2.7 mM KCl, 1.8 mM KH2PO4, 136 mM NaCl, 10 mM Na2HPO4 pH 7.4). The treated cells were incubated in methanol for 15 min and washed two times with distilled water. Cells were dyed with 0.1% crystal violet and washed three times with water and finally violet crystal was recovered with 10% acid acetic to be analyzed in microplate reader Multiskan GO Spectrophotometer (Thermo Scientific™, Ratastie, Finland).

[2] = Cyclic voltammetry in 0.1 M TBABF4/DMSO; conditions: for irreversible oxidation potential peak (positive potential region) / irreversible anodic peak (negative potential region): Figure 2, vs Ag/Ag+, 100 mV s^−1; for ipa: anodic peak current density; for ipa / Epa / ipc / Epc / E1/2 / ΔEp / |ipa/ipc|: TBABF4 0.1 M/DMSO, 100 mV/s; for Epa: anodic peak potential of redox reaction; for Epa / Epc: vs Ag/Ag+ pseudo-reference; for ipc: cathodic peak current density; for Epc: cathodic peak potential of redox reaction; for E1/2: half-wave potential, E1/2 = (Epa + Epc)/2, vs Ag/Ag+; for ΔEp: potential peak separation, ΔEp = Epc − Epa; for |ipa/ipc|: ratio of anodic to cathodic peak current (reversibility)
Experimental: Electrochemical studies of naphthoquinone–amino acids (3a–c) and chloride–naphthoquinone–amino acids (4a–c) derivatives were studied by cyclic voltammetry (CV) as previously reported [24]. Briefly, non-aqueous solutions of compounds 3a–c or 4a–c at a concentration of 5 mM were dissolved in dimethyl sulfoxide (DMSO, Sigma–Aldrich, St. Louis, MO, USA) containing 0.1 M tetrabutylammonium tetrafluoroborate (TBABF4, Sigma–Aldrich, St. Louis, MO, USA) as supporting electrolyte. Then, the non-aqueous solutions containing 3a–c or 4a–c were studied by CV in a three-electrode cell using a freshly polished glassy carbon disk electrode (GC) (0.07 cm^2, BASi, West Lafayette, IN, USA) as working electrode and a Pt wire (Alfa-Aesar, Tewksbury, MA, USA) as counter electrode. An Ag/Ag^+ electrode in 0.1 M TBABF4/DMSO was used as pseudo-reference electrode. A potential scan was performed from −2.0 V to 0.75 V vs. Ag/Ag^+ at 100 mV s^−1 in the cathodic direction in order to identify any electron transfer reaction associated to compounds 3a–c or 4a–c using a potentiostat/galvanostat PAR VersaStat 3 (Ametek, Inc. Berwyn, PA, USA). Furthermore, any redox reaction processes of 3a–c or 4a–c were further studied at a scan rate of 10, 25, 50, 100, 200, and 300 mV s^−1. As received TBABF4 and DMSO were used without further purification or drying processes. All the non-aqueous testing solutions were degassed for 30 min with high-purity N2 gas before cyclic voltammetry experiments.

[3] = tested on: SiHa cells (HPV-16 positive cervical tumor line); assay: Cell proliferation (crystal violet), dose-response, SiHa; conditions: Homo sapiens, 72 h
Experimental: as §1, §2, §3

[4] = tested on: HaCaT cells (HPV negative non-tumorigenic immortal keratinocytes); assay: Cell proliferation (crystal violet), dose-response, HaCaT; conditions: Homo sapiens, 72 h
Experimental: as §1, §2, §3

O=C1C=C(NC(Cc2ccc(O)cc2)C(=O)O)C(=O)c2ccccc21 (stereo not shown) [Compound 3a, 2-((1,4-dioxo-1,4-dihydronphthalen-2-yl)amino)-3-(4-hydroxyphenyl) propanoic acid]
IC50 [1]: 81.1 µM | melting point: 214 to 216 °C | irreversible oxidation potential peak (positive potential region) [2]: higher than 0.5 V | ipa [2]: 0.28 mA cm^−2 | Epa [2]: −1.15 V | ipc [2]: −0.30 mA cm^−2 | Epc [2]: −1.27 V | E1/2 [2]: −1.21 V | ΔEp [2]: 0.13 V | |ipa/ipc| [2]: 0.95 | IC50 [3]: 41 µM | IC50 [4]: 61.6 µM

CC(C)C(NC1=CC(=O)c2ccccc2C1=O)C(=O)O (stereo not shown) [Compound 3b, 2-((1,4-dioxo-1,4-dihydronaphthalen-2-yl)amino)-3-methylbutanoic acid]
IC50 [1]: 57 µM | melting point: 170 to 172 °C | irreversible anodic peak (negative potential region) [2]: −0.2 V | irreversible oxidation potential peak (positive potential region) [2]: 0.60 V | ipa [2]: 0.28 mA cm^−2 | Epa [2]: −1.16 V | ipc [2]: −0.30 mA cm^−2 | Epc [2]: −1.27 V | E1/2 [2]: −1.21 V | ΔEp [2]: 0.12 V | |ipa/ipc| [2]: 0.95 | IC50 [3]: 47.2 µM | IC50 [4]: 55.3 µM

CC(C)C(NC1=C(Cl)C(=O)c2ccccc2C1=O)C(=O)O (stereo not shown) [Compound 4b, 2-((3-chloro-1,4-dioxo-1,4-dihydronaphthalen-2-yl)amino)-3-methylbutanoic acid]
IC50 [1]: 2.88 µM | melting point: 54 to 56 °C | irreversible anodic peak (negative potential region) [2]: −0.36 V | irreversible oxidation potential peak (positive potential region) [2]: 0.57 V | ipa [2]: 0.21 mA cm^−2 | Epa [2]: −1.05 V | ipc [2]: −0.25 mA cm^−2 | Epc [2]: −1.19 V | E1/2 [2]: −1.12 V | ΔEp [2]: 0.14 V | |ipa/ipc| [2]: 0.83 | IC50 [3]: 11.3 µM | IC50 [4]: 7.97 µM

O=C1C(Cl)=C(NC(Cc2ccc(O)cc2)C(=O)O)C(=O)c2ccccc21 (stereo not shown) [Compound 4a, 2-((3-chloro-1,4-dioxo-1,4-dihydronaphthalen-2-yl)amino)-3-(4-hydroxyphenyl)propanoic acid]
IC50 [1]: 7.03 µM | irreversible anodic peak (negative potential region) [2]: −0.33 V | irreversible oxidation potential peak (positive potential region) [2]: higher than 0.5 V | ipa [2]: 0.22 mA cm^−2 | Epa [2]: −1.04 V | ipc [2]: −0.24 mA cm^−2 | Epc [2]: −1.15 V | E1/2 [2]: −1.10 V | ΔEp [2]: 0.11 V | |ipa/ipc| [2]: 0.92 | IC50 [3]: 6.83 µM | IC50 [4]: 9.88 µM

O=C1C=C(NC(Cc2c[nH]c3ccccc23)C(=O)O)C(=O)c2ccccc21 (stereo not shown) [Compound 3c, 2-((1,4-dioxo-1,4-dihidronaphthalen-2-yl)amino)-3-(1H-indol-3-yl)propanoic acid]
IC50 [1]: 25.2 µM | irreversible oxidation potential peak (positive potential region) [2]: 0.45 V | ipa [2]: 0.26 mA cm^−2 | Epa [2]: −1.19 V | ipc [2]: −0.27 mA cm^−2 | Epc [2]: −1.30 V | E1/2 [2]: −1.24 V | ΔEp [2]: 0.11 V | |ipa/ipc| [2]: 0.95 | IC50 [3]: 28.8 µM | IC50 [4]: 40.8 µM

O=C1C(Cl)=C(NC(Cc2c[nH]c3ccccc23)C(=O)O)C(=O)c2ccccc21 (stereo not shown) [Compound 4c, 2-((3-chloro-1,4-dioxo-1,4-dihydronaphthalen-2-yl)amino)-3-(1H-indol-3-yl)propanoic acid]
IC50 [1]: 2.7 µM | irreversible anodic peak (negative potential region) [2]: −0.36 V | irreversible oxidation potential peak (positive potential region) [2]: 0.46 V | ipa [2]: 0.23 mA cm^−2 | Epa [2]: −1.05 V | ipc [2]: −0.27 mA cm^−2 | Epc [2]: −1.17 V | E1/2 [2]: −1.11 V | ΔEp [2]: 0.12 V | |ipa/ipc| [2]: 0.85 | IC50 [3]: 3.21 µM | IC50 [4]: ~0.331 µM
